# Source: patent publication US5159069A, “Sulfated tannins and their salts” (Yamanouchi Pharmaceutical Co., Ltd., priority 1988, dated 1992)
# Key:
# [1] = system: MOLT-4 and MOLT-4/HIV HTLV-IIIB cells; experiment: Inhibitory effect on giant cell formation by mixed cultivation of MOLT-4 and MOLT-4/HIV HTLV-IIIB cells; assay type: cell-based, human; settings: 24 hours co-culture, co-culture control 18.5%
# Protocol: This experiment was performed by the recently developed method of Yamamoto et al. (see Yamamoto et al., Virology, 1988, 164, p. 542; and J. Clinical Microbiology, 1988, 26, p. 1229).
# MOLT-4 cells which are HTLV-I negative human T cell strain, and MOLT-4/HIVHT LV II IB cells which are persistently HIV-infected cells are separately cultured in a RPMI 1640 culture medium supplemented with 10% fetal calf serum to a cell density of 5×10^5 /ml respectively, these were mixed in a ratio of 1:1 and the drug was added thereto.
# The mixed culture medium was cultured at 37° C. for 24 hours in a carbon dioxide incubator and the distribution of cell size was determined by a Cell Multisizer (available from Coulter Electronics, Ltd., Luton, England).
# In Table IX, the rate of cell having a size of not less than 20 μm is expressed by "%". If MOLT-4 cells and MOLT-4/HIVHT LV II IB cells are separately cultured, the rates are 4.5 and 3.3% respectively, but it increased up to 18.5% when they are co-cultured. When tannic acid-S was added to the mixed culture medium in a concentration of 5 μg/ml, the rate was reduced to 8.2%.
# [2] = system: HTLV-IIIB-infected MT-4 cells; experiment: Inhibitory effect on expression of HIV-specific antigen (immunofluorescence); assay type: cell-based
# Protocol: After drying the cells cultured in Experiment 1 on a slide glass, they were fixed with methanol for 3 minutes and treated with human anti-HIV-III positive serum (IF antibody titer×4096) which was diluted 1/1,000 time at 37° C. for 30 minutes. Thereafter, it was washed with phosphate-buffered saline (PBS) for 15 minutes and treated with an anti-human IgG conjugated with fluorescein-isothiocyanate at 37° C. for 30 minutes. It was again washed with PBS and then the number of fluorescent cells, more specifically expressed HIV-specific virus antigen proteins were determined with a fluorescence microscope. "%" is a ratio of the number of fluorescent ray emitting cells to the number of total cells.
# [3] = system: HTLV-IIIB-non-infected MT-4 cells; experiment: Toxicity: influence on the proliferation of T cells; assay type: cell-based, human
# Protocol: (§1) HTLV-IIIB-infected MT-4 cells were inoculated on RPMI 1640 culture mediums containing 10% heat-inactivated fetal calf serum, 100 IU/ml of penicillin and 100 μg/ml of streptomycin, to which tannic acid-S had been added in a variety of concentrations, in a cell number of 300,000/ml and were cultured at 37° C. in a carbon dioxide incubator. After the cultivation for three days, one half of the culture medium was withdrawn and the survival rate and the viable count (X 10^4 /ml) of the MT-4 cells in the medium were determined by a trypan blue dye exclusion test. To the remaining cultured cells, an equivalent amount of RPMI 1640 culture medium each containing the same amount of the drugs were added, the cultivation was further continued for additional 3 days and likewise the survival rate and the viable count were determined.
# As in Experiment 1, there was observed the influence of the compounds (drugs) of the present invention on the proliferation of HTLV-IIIB-non-infected MT-4 cells. The results thus observed are listed on the following Tables XI to XIV. The numerical values in these Tables mean viable count (X 10^4 /ml) and those in parentheses mean survival rates.
# [4] = system: HTLV-IIIB-infected MT-4 cells; experiment: Inhibitory effect of drugs on HIV-induced cell damage (trypan blue dye exclusion); assay type: cell-based
# Protocol: In this experiment, there were used human MT4 cells, a human T4-positive cell line carrying adult T-cell leukemia causative virus, HTLV-1 (Gann Monogr.,1982, Vol. 28, pp. 219 -228) and HTLF-IIIB which is one of the HIV strains.
# as §1
# [5] = Stability of powder and aqueous solution; settings: powder state and aqueous solution
# [6] = drug 50 μg/ml, culture period 3 days
# [7] = drug 50 μg/ml, culture period 6 days
# [8] = drug 100 μg/ml, culture period 3 days
# [9] = drug 100 μg/ml, culture period 6 days
# [10] = drug 200 μg/ml, culture period 3 days
# [11] = drug 200 μg/ml, culture period 6 days
# [12] = drug 400 μg/ml, culture period 3 days
# [13] = drug 400 μg/ml, culture period 6 days
substance,measurement,setting,value
sodium salt of sulfated (-)-epigallocathechin-3-gallate [Epigallocatechin gallate-S],Rate of Giant Cell (cells of size not less than 20 μm),[1]; drug 25 μg/ml,13.8%
same,Rate of Giant Cell (cells of size not less than 20 μm),[1]; drug 50 μg/ml,17.5%
same,Rate of Giant Cell (cells of size not less than 20 μm),[1]; drug 100 μg/ml,5.6%
same,Rate of Giant Cell (cells of size not less than 20 μm),[1]; drug 200 μg/ml,0.4%
same,Ratio of fluorescent ray emitting cells to total cells,[2]; [6],< 1%
same,Ratio of fluorescent ray emitting cells to total cells,[2]; [7],< 1%
same,Ratio of fluorescent ray emitting cells to total cells,[2]; [8],< 1%
same,Ratio of fluorescent ray emitting cells to total cells,[2]; [9],< 1%
same,Ratio of fluorescent ray emitting cells to total cells,[2]; [10],< 1%
same,Ratio of fluorescent ray emitting cells to total cells,[2]; [11],< 1%
same,Ratio of fluorescent ray emitting cells to total cells,[2]; [12],< 1%
same,Ratio of fluorescent ray emitting cells to total cells,[2]; [13],< 1%
same,Viable count,[3]; [6],1.06e+06 mL⁻¹
same,survival rate,[3]; [6],88
same,Viable count,[3]; [7],400000 mL⁻¹
same,survival rate,[3]; [7],92
same,Viable count,[3]; [8],1.14e+06 mL⁻¹
same,survival rate,[3]; [8],85
same,Viable count,[3]; [9],370000 mL⁻¹
same,survival rate,[3]; [9],91
same,Viable count,[3]; [10],900000 mL⁻¹
same,survival rate,[3]; [10],91
same,Viable count,[3]; [11],950000 mL⁻¹
same,survival rate,[3]; [11],92
same,Viable count,[3]; [12],960000 mL⁻¹
same,survival rate,[3]; [12],89
same,Viable count,[3]; [13],530000 mL⁻¹
same,survival rate,[3]; [13],95
same,Viable count,[4]; [6],830000 mL⁻¹
same,survival rate,[4]; [6],85%
same,Viable count,[4]; [7],1.3e+06 mL⁻¹
same,survival rate,[4]; [7],92%
same,Viable count,[4]; [8],840000 mL⁻¹
same,survival rate,[4]; [8],83%
same,Viable count,[4]; [9],1.25e+06 mL⁻¹
same,survival rate,[4]; [9],95%
same,Viable count,[4]; [10],810000 mL⁻¹
same,survival rate,[4]; [10],89%
same,Viable count,[4]; [11],750000 mL⁻¹
same,survival rate,[4]; [11],87%
same,Viable count,[4]; [12],720000 mL⁻¹
same,survival rate,[4]; [12],82%
same,Viable count,[4]; [13],500000 mL⁻¹
same,survival rate,[4]; [13],86%
same,Stability,[5],stable in powder state and in the form of aqueous solutions
